Laboratory results: patent US20200239398A1, “METHYLENE-CYCLOALKYLACETATE DERIVATIVES AND THEIR USE IN TREATMENT OF NEUROTROPIC CONDITIONS” (Yissum Research Development Company of The Hebrew …, priority 2018, published 2020)
Like-named read-outs stand apart in the source and are kept apart here.

How the values were obtained:
[1] = biological target: T1, Nuclear Hormone Androgen Receptor (AR) (Homo sapiens, UniProt P10275); test: SAFETYscan AR Nuclear Hormone Receptor Translocation; assay type: cell-based; conditions: 10 μM HU-MCA-13
T1 construct: DiscoverX (SAFETYscan contract panel)
T1 sequence (P10275 whole entry): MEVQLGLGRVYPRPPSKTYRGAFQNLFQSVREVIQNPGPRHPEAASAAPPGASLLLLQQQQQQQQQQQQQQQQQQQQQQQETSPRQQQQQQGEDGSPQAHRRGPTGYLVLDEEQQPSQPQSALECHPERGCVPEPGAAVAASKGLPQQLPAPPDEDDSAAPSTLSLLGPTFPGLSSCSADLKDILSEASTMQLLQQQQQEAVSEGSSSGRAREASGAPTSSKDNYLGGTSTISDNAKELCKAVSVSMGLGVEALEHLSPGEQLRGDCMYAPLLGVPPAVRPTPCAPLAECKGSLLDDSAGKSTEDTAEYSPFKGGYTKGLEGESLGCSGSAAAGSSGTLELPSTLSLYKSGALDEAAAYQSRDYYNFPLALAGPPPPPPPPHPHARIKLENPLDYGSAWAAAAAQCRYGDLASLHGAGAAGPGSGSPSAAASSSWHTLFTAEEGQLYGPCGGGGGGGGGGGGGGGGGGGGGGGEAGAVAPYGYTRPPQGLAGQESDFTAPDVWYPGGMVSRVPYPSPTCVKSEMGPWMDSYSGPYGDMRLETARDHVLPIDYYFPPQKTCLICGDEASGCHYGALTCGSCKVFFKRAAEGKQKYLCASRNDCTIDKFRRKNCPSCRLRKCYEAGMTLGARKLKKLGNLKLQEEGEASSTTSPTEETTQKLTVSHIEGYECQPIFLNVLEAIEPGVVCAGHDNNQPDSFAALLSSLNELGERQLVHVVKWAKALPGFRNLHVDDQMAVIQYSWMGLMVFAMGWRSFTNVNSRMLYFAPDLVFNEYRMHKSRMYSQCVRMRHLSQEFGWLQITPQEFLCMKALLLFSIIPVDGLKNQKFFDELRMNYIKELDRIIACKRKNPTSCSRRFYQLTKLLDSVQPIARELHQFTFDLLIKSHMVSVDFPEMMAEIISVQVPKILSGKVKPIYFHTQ

[2] = biological target: T2, cGMP-inhibited cyclic nucleotide phosphodiesterase 3A (PDE3A) (Homo sapiens, UniProt Q14432); test: SAFETYscan PDE3A Enzymatic; assay type: biochemical; conditions: Inhibitor mode; 10 μM HU-MCA-13; read-out: Maximal Response
T2 construct: DiscoverX (SAFETYscan contract panel)

PC12 cells [3] = test: Cytotoxicity (cell morphology, LDH release); assay type: cell-based; conditions: 10 μM
PC12 cells [4] = test: Additive neurotropic effect between HU-MCA-13 and NGF, PC12 neurite outgrowth; assay type: cell-based, rat
Experimental: PC12 cells were cultured in T-200 flasks in high glucose (4.5 gr/L) DMEM medium supplemented with 7% FCS, 7% horse serum and 1% penicillin and streptomycin. Cells will be maintained at 37° C. in a humidified incubator containing 6% CO2. All experiments were carried out in a GLP clean room, according to ISO 7 requirements (10,000 particles/m^3). For neurotropic experiments, tissue culture Falcon plates were coated with 200 μg/ml collagen type 1 and placed under UV light for 30 minutes for sterilization. Thereafter, one ml of PC12 cell suspension (5000 cells/well) was applied in 12 or 24 well plate, respectively. The cultures were maintained in the incubator two days before exposure to investigated compound. Each neurotropic experiment contained two controls. The first consisted of untreated cells (negative control), representing the random effect: “noise signal”—the ability of cells to spontaneously grow neurite outgrowth which in seven days are of a length less than two-fold cell diameter. Also, negative controls consisted of cultures treated with 1% DMSO, solvent used to solubilize HU-MCA-13. The positive controls represented neuronal cultures treated with 50 ng/ml NGF, indicating maximal neurite outgrowth that can be achieved in this model. The experimental group consisted of PC12 cells treated with 10 μM HU-MCA-13. In each experiment, after two and seven days, six cultures will be evaluated for neurotropic effect. These consecutive observations allow measurement of the progress of neurite outgrowth elongation and the percentage of cells with neurites (Katzir et al. A quantitative bioassay for nerve growth factor, using PC12 clones expressing different levels of trkA receptors. J Mol Neurosci. 2002; 18(3):251-64). In order to assess neurotropic effect, the neurite outgrowth length in each culture was quantified. For this purpose, each culture was placed under an inverted microscope and photographed by the attached camera. Each well was photographed at three to five representative areas. After acquiring the photos, they were analyzed by ImageJ, NIH software. The neurite outgrowth was estimated by fractal dimension (Df), a statistical parameter that describes the fractional space (area and length) filled by neurite outgrowth. Df ranged from 0 to 1.20. This method estimated the amount of picsels covered by neurites/cells compared to empty space per square field, and therefore plotting log(number of square boxes) vs. log(size in pixels) relationship generated a linear curve with Df representing the slope of the curve. Every photograph that was taken, was opened in a Photoshop software and a new layer was generated on it. Using a 5-pixel wide digital pencil tool, all the outgrowths were marked and the layer with the markers (outgrowth network) were saved in a 0-255 gray scale. Thereafter, the saved layer was opened by ImageJ NIH software.
Using an established PC12 neurotropic in vitro assay, the regenerative enhancing effect of HU-MCA-13 when applied concomitantly, together with NGF, a known neurotrophin was investigated. […] NGF alone, as positive control, at the conventional dose of 50 ng/ml enhanced neurite outgrowth to a Df value of 0.54 at 2 days and 0.4 at 7 days of treatment (FIG. 5). To verify a possible additive effect, the cultures with a mixture of low dose NGF (1 ng/ml generating 10% neurite outgrowth=Df of 0.05) and 1 μM HU-MCA-13 generating about 10-15% neurite outgrowth=Df of 0.04) were tested and found after 2 days a Df of 0.85 and after 7 days a Df of 0.38. NGF is released by hematopoietic cells during polyneuropathy inflammatory process, this finding further strength the possibility of a potential enhancement regenerative effect of this drug upon in vivo therapy.

[5] = biological target: T3, Monoamine oxidase type A (MAOA) (Homo sapiens, UniProt P21397); test: SAFETYscan MAOA Enzymatic; assay type: biochemical; conditions: Inhibitor mode; 10 μM HU-MCA-13; read-out: Maximal Response
T3 construct: DiscoverX (SAFETYscan contract panel)

[6] = biological target: T4, Kv7.1/KCNE Potassium voltage-gated channel (KvLQT1/minK) (Homo sapiens, UniProt P51787); test: SAFETYscan KvLQT1/minK Ion channel; assay type: cell-based; conditions: 10 μM HU-MCA-13, read-out: Maximal Response
T4 construct: DiscoverX (SAFETYscan contract panel)

Cyclooxygenase 1 (COX 1) = biological target: T5, Cyclooxygenase 1 (COX 1) (Homo sapiens, UniProt P23219); test: SAFETYscan COX 1 Enzymatic; assay type: biochemical; conditions: Inhibitor mode; 10 μM HU-MCA-13; read-out: Maximal Response
T5 construct: DiscoverX (SAFETYscan contract panel)

[7] = biological target: Dopamine Receptor D1 (DRD1) (Homo sapiens, UniProt P21728); test: SAFETYscan DRD1 cAMP; assay type: cell-based; conditions: 10 μM HU-MCA-13
Chain of Dopamine Receptor D1 (DRD1) (P21728 whole entry): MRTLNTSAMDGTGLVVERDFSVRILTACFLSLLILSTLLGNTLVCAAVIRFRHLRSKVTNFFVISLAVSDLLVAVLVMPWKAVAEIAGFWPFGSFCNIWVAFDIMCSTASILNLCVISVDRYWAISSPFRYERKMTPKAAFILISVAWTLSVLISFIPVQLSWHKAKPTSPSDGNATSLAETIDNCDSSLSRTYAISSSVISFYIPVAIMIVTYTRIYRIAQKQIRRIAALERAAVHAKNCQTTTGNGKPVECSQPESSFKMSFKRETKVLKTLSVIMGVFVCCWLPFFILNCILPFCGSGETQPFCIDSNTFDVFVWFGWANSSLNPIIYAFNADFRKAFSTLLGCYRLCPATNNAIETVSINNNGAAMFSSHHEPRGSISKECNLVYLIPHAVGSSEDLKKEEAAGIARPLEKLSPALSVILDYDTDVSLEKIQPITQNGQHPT

[8] = biological target: Endothelin Receptor Type A (EDNRA) (Homo sapiens, UniProt P25101); test: SAFETYscan EDNRA Calcium Flux; assay type: cell-based; conditions: Agonist mode; 10 μM HU-MCA-13; read-out: Maximal Response
Chain of Endothelin Receptor Type A (EDNRA) (P25101 21-427): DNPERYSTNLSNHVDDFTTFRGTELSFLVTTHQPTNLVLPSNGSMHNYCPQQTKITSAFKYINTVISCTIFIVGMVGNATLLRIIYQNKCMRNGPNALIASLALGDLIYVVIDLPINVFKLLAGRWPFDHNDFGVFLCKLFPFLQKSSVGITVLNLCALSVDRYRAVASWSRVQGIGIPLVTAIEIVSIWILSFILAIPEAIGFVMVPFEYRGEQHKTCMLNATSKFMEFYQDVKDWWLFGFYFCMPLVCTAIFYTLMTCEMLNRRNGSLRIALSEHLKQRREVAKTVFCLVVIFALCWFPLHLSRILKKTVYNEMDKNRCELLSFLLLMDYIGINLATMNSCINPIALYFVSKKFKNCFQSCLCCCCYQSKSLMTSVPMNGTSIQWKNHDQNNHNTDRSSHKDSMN

[9] = biological target: Opioid Receptor Delta 1 (OPRD1) (Homo sapiens, UniProt P41143); test: SAFETYscan OPRD1 cAMP; assay type: cell-based; conditions: 10 μM HU-MCA-13, read-out: Maximal Response
Chain of Opioid Receptor Delta 1 (OPRD1) (P41143 whole entry): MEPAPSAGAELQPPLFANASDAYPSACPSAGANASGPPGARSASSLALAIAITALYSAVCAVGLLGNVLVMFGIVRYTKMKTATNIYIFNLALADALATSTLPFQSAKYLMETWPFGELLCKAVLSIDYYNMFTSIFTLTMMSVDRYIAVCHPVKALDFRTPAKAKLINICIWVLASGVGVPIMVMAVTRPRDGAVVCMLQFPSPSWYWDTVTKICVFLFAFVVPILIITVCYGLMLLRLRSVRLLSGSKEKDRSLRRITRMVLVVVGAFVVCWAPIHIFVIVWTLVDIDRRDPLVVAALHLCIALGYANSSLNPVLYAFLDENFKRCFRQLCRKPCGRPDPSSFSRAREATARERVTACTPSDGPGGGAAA

[10] = biological target: Adrenergic Receptor β2 (ADRB2) (Homo sapiens, UniProt P07550); test: SAFETYscan ADRB2 cAMP; assay type: cell-based; conditions: 10 μM HU-MCA-13, read-out: Maximal Response
Chain of Adrenergic Receptor β2 (ADRB2) (P07550 whole entry): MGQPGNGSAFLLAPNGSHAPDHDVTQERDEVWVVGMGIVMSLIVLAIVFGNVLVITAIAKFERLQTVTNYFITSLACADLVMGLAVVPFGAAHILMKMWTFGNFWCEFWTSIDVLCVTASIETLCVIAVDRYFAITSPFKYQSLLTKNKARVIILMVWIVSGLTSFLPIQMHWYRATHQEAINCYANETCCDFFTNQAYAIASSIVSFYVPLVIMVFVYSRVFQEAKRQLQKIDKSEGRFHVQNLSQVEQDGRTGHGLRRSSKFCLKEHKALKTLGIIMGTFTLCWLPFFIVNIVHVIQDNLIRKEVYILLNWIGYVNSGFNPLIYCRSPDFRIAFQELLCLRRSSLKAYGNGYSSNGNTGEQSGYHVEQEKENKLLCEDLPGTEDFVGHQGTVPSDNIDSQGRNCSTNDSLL

[11] = biological target: T6, 5-Hydroxytryptamine (Serotonin) Receptor 3A (HTR3A) (Homo sapiens, UniProt P46098); test: SAFETYscan HTR3A Ion channel; assay type: cell-based; conditions: 10 μM HU-MCA-13, read-out: Maximal Response
T6 construct: DiscoverX (SAFETYscan contract panel)
T6 sequence (P46098 24-478): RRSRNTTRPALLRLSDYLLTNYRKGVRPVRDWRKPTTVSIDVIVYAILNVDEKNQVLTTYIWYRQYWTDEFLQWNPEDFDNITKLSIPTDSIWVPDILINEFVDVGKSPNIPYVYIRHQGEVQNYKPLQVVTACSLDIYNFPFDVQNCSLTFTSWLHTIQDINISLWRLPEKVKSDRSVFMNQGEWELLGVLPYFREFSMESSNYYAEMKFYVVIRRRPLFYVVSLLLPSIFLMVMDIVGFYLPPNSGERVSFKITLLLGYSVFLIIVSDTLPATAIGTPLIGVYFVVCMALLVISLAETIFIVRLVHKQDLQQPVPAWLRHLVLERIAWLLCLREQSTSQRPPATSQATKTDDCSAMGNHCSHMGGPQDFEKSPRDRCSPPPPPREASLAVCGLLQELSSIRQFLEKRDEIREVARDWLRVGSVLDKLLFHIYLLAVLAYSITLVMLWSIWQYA

[12] = biological target: T7, Rho Associated Coiled-Coil Containing Protein Kinase 1 (serine-threonine kinase) (ROCK1) (Homo sapiens, UniProt Q13464); test: SAFETYscan ROCK1 kinase Binding; conditions: Inhibitor mode, 10 μM HU-MCA-13, read-out: Maximal Response
T7 construct: DiscoverX (KINOMEscan)
T7 sequence (Q13464 whole entry): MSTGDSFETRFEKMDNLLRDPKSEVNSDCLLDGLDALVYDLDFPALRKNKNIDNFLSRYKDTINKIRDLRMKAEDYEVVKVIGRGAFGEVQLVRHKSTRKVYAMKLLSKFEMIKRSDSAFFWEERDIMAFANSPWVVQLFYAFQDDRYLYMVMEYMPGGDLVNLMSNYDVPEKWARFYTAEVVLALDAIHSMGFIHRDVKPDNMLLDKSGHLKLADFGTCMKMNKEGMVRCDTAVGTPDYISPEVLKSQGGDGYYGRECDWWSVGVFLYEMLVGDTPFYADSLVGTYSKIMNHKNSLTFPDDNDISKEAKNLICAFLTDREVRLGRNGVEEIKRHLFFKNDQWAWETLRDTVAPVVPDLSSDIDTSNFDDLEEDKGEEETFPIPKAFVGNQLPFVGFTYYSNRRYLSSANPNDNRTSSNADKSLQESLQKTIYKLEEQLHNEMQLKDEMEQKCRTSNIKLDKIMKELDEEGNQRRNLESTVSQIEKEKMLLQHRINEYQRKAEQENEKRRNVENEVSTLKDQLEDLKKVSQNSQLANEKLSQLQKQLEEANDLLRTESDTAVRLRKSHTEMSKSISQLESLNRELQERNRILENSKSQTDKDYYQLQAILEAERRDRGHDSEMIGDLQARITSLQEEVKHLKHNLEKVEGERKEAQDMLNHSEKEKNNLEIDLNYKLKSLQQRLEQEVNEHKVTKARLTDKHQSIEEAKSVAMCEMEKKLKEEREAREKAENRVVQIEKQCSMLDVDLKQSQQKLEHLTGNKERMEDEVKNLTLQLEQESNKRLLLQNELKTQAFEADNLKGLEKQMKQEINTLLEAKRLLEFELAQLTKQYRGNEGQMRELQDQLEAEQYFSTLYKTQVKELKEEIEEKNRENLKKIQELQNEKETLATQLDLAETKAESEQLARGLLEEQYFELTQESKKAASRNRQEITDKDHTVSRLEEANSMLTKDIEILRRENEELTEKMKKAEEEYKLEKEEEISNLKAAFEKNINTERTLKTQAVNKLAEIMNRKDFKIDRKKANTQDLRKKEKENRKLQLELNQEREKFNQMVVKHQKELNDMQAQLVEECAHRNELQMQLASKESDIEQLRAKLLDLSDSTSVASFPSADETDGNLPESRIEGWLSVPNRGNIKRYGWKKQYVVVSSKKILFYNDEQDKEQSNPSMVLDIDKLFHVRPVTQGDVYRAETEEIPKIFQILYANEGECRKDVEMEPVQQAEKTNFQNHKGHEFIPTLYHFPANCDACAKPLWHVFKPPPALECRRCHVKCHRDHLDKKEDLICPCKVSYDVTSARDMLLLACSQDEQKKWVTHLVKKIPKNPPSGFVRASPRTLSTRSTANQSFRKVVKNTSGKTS

[13] = biological target: T8, Lymphocyte Cell-Specific Protein-Tyrosine Kinase (Src family) (LCK) (Homo sapiens, UniProt P06239); test: SAFETYscan LCK kinase Binding; conditions: Inhibitor mode, 10 μM HU-MCA-13, read-out: Maximal Response
T8 construct: DiscoverX (KINOMEscan)
T8 sequence (P06239 whole entry): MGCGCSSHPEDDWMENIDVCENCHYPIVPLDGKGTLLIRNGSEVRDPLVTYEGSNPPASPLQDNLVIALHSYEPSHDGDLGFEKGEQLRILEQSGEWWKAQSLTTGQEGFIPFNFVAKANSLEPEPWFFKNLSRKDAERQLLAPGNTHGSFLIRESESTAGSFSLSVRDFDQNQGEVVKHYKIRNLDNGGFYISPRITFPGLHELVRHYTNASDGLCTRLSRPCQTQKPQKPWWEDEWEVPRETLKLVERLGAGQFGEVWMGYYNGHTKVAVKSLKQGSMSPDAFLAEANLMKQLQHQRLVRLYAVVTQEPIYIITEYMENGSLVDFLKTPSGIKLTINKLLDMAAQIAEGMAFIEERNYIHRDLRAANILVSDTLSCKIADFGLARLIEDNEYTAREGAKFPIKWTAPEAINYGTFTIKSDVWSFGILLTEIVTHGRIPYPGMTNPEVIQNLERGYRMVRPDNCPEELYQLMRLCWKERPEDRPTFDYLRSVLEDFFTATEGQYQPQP

[14] = read-out: Maximal Response, Agonist mode

## C=CCC1CCC[C@@H](CCC(=O)O)C1=C (some centres unmarked) [Compound 13]
[1]; Antagonist mode, read-out: Maximal Response
  Emax: 5.27%
[1]; [14]
  Emax: 0%
[2]
  Emax: 3.21%
PC12 cells [3]
  cytotoxicity (in words): not toxic to neurons
PC12 cells [4]; 1 μM HU-MCA-13
  neurite outgrowth: 10-15%
  neurite outgrowth Df: 0.04
PC12 cells [4]; HU-MCA-13 alone at 10 μM, 2 days
  neurite outgrowth Df: 0.36
PC12 cells [4]; HU-MCA-13 alone at 10 μM, 7 days
  neurite outgrowth Df: 0.30
[5]
  Emax: 1.86%
[6]; Blocker mode
  Emax: 0.55%
[6]; Opener mode
  Emax: 0%
Cyclooxygenase 1 (COX 1)
  Emax: 25%
[7]; [14]
  Emax: 0%
[7]; read-out: Maximal Response, Antagonist mode
  Emax: 14.3%
[8]
  Emax: 0%
[9]; Agonist mode
  Emax: 6.34%
[9]; Antagonist mode
  Emax: 0%
[10]; Agonist mode
  Emax: 1.29%
[10]; Antagonist mode
  Emax: 8.23%
[11]; Blocker mode
  Emax: 0.19%
[11]; Opener mode
  Emax: 0%
[12]
  Emax: 21.6%
[13]
  Emax: 12.8%
